# Laboratory results published in the NIST ThermoML archive (doi:10.1021/je060078g).
# Numbers after ± are expanded uncertainties.
# Conditions: Liquid; pulse-heating method
Critical pressure [kPa],Critical temperature [K],Compound
3460 ± 120,776 ± 8,O=C(O)CCc1ccccc1 [3-phenylpropanoic acid]
3210 ± 110,783 ± 8,O=C(O)CCCc1ccccc1 [4-phenylbutanoic acid]
2950 ± 100,790 ± 8,O=C(O)CCCCc1ccccc1 [5-phenylvaleric acid]
2600 ± 90,794 ± 8,O=C(O)CCCCCc1ccccc1 [6-phenylhexanoic acid]
2470 ± 90,798 ± 8,O=C(O)CCCCCCc1ccccc1 [7-phenylheptanoic acid]

Compound,Critical pressure [kPa],Critical temperature [K]
O=C(O)Cc1ccccc1 [phenylacetic acid],3950 ± 140,766 ± 8
